{
  "source": "patent US5785963A",
  "about": "“Polymeric hydantoin quaternary compounds, methods of making” (Lonza, Inc., priority 1996, dated 1998)",
  "test_system": "bovine corneas",
  "assay": "BCOP (Bovine Corneal Opacity and Permeability) assay of ocular irritancy",
  "experimental": "A BCOP (Bovine Corneal Opacity and Permeability) assay was carried out on polyhydantoin quat compounds of the invention using a test system developed by Gautheron et al.L, \"Bovine Corneal Opacity and Permeability Test: An in Vitro Assay of Ocular Irritancy\" Fundamental and Applied Toxicology, 18: 442-449 (1992). The system measures two important properties which are predictive of irritation: corneal opacity and permeability. The following classification system for in vitro scores was used:\nfrom 25.1 to 55=moderate irritant\nfrom 55.1 and above=severe irritant\nTwo polyhydantoin quaternary compounds, having formulas IV and V, were tested using known antimicrobial compositions, ethanol and a didecyl dimethyl ammonium chloride (Bardac 2250, Lonza Inc., Fair Lawn, N.J.), as controls. The test samples were prepared as 0.1% active solutions in distilled water.\nIn this test, bovine corneas (from slaughterhouse animals) were mounted between two tissue culture media reservoirs in holders which function both as treatment chambers and as cuvettes for subsequent direct measurement of corneal opacity. […]\nAfter completion of the incubation period, the resultant damage was assessed both by quantitative measurement of opacity change, and by indirect measurement of corneal cell damage as evidenced by increased passage of fluorescein.",
  "data": [
    {"smiles": "CCO", "note": "[Ethanol, ethanol]", "values": [
      {"measurement": "BCOP SCORE", "value": 68.7}
    ]}
  ]
}
